{"source": "paper PMC7259601", "about": "(PLoS ONE, 2020)", "key": {"Mouse recombinant KDM1B": {"target": "T1, Mouse recombinant KDM1B (Mus musculus, UniProt Q8CIG3)", "T1 construct": "gift: Dr. Andrea Mattevi, University of Pavia", "T1 sequence (Q8CIG3 whole entry)": "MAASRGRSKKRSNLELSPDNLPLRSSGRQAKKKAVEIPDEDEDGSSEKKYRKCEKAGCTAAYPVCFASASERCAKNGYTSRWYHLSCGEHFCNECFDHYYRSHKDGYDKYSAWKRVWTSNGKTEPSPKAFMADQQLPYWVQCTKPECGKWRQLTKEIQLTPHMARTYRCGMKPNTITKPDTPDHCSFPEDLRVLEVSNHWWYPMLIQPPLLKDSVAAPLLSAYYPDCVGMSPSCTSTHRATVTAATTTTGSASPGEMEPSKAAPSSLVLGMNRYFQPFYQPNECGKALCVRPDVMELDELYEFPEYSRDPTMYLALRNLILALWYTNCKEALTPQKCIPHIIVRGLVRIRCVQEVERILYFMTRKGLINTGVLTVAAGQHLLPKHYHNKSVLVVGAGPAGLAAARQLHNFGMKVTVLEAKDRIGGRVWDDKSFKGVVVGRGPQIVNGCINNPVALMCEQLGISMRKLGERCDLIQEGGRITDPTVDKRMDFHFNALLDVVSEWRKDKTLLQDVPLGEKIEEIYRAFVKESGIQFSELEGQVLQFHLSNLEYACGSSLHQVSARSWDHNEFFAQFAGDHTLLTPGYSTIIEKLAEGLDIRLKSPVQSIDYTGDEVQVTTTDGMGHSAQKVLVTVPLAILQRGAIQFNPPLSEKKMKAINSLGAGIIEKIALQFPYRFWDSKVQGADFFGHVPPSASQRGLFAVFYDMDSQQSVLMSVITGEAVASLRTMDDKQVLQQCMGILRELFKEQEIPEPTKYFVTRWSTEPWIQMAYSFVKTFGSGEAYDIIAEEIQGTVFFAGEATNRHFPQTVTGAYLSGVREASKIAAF", "experiment": "KDM1B inhibition assay", "assay_type": "biochemical", "experimental": "Mouse recombinant KDM1B protein was kindly provided by Dr. Andrea Mattevi from the University of Pavia. The biochemical activity assay was carried out at room temperature in a similar manner as for KDM1A but using 50 mM HEPES pH 8.5 as the reaction buffer, but with 10 min of incubation of KDM1B in the presence of dimethylated H3K4 peptide at the KMapp of KDM1B."}, "KDM1A [1]": {"tested_on": "KDM1A", "experiment": "KDM1A target engagement in brain cortex (chemoprobe ELISA)", "assay_type": "in vivo, SAMP8 mice", "conditions": "end of 2 month treatment", "experimental": "Native protein extracts of cells or tissues were obtained in presence of 25 nM OG-881 chemoprobe according the protocol described in Mascaró et al..\n(§1) Luminescent ELISA: for quantification of total amount of KDM1A protein (TOTAL KDM1A), Luminunc Plates Maxisorp (NUNC; #436110) were coated with a monoclonal anti-KDM1A antibody (Abcam; #ab53269) at 2 µg/mL in PBS. For quantification of the fraction not bound to inhibitor (FREE KDM1A), plates were coated with streptavidin (Promega Biotech Ibérica; #Z7041) at 10 µg/mL in PBS. Coating was performed at 4°C O/N. Wells were washed 3 times in PBS, 0.1% Tween-20 and blocked with PBS-BSA 1% (Sigma; #A3059) for 2 hr. A KDM1A calibration curve of full length rKDM1A (Active Motif; #31334) diluted in PBS was included in each plate. Plates were then incubated 1 hr at RT and washed 5 times. […] Plates were centrifuged during 30 sec to 1,500 x g, shaken for 1 min at 100rpm and incubated inside the micropate reader (Infinite 200, Tecan) for 3 min at 25 °C. The relative luminescence units (RLU) readouts were acquired using a 1000 msec integration time and 150 msec settle time.\nAll assays were run as triplicate technical replicates (n = 3). After raw data processing (robust elimination of outliers according to Grubbs criteria and subtraction of blank signal on technical replicates), the target engagement was calculated as […]"}, "Rat pharmacokinetics": {"experiment": "Rat pharmacokinetics", "assay_type": "in vivo, Wistar rats", "conditions": "for AUC(0-inf) / Cmax / Tmax / AUC(0-t): Wistar; for AUC(0-inf): read-out: Plasma AUCinf; for AUC(0-t): read-out: Plasma AUClast", "experimental": "Blood samples were collected at 0, 0.08 (for IV only), 0.25, 0.5, 1, 2, 4, and 6 (Only for PO) 8 and 24 hr for IV and PO group and at three rats were euthanized by using excess CO2 asphyxiation, each at 0.25, 1 and 4 hr post dose and brain was collected. The study was conducted at Sai Advantium Pharma Limited, Pune, India, in accordance with the guidelines of the Institutional Animal Ethics Committee (IAEC). Prior approval was obtained before initiation of the study (IAEC Protocol No. IAEC/PRT/006-11).\nBlood samples were collected from each rat at 0.5, 1, 2, 4, 6, 8, 12, and 24 hr (oral gavage) or at 2, 4, 6, 8, 12, 24, 25, 27, 30 and 48 hr (drinking water) were collected from the retro-orbital plexus into labeled tubes, containing K2EDTA solution, as an anticoagulant. Animals were euthanized by using excess CO2 asphyxiation. […] Prior approval was obtained before initiation of the study (IAEC Protocol No. FB-14-069-R-089; IAEC-CPCSEA).\nPlasma was harvested from the blood samples harvested in K2EDTA containing tubes by centrifugation at 4000 rpm for 10 min at 4 ± 2 °C and stored below -70 °C until bioanalysis. Brain tissue was homogenized with phosphate buffer saline (pH 7.4). Total homogenate volume was thrice the tissue weight. All samples were processed for analysis by precipitation using Imipramine as internal standard and analyzed with partially validated LC-MS/MS method. Pharmacokinetic parameters were calculated using the non-compartmental analysis tool of WinNonlin® Enterprise software (Pharsight Corp., USA; version 5.2).\nCompound levels from 3 samples per timepoint (for a given dose and route of administration), were used to calculated pharmacokinetic parameters using the non-compartmental analysis tool of WinNonlin® Enterprise software (Pharsight Corp., USA; version 5.2)."}, "KDM1A [2]": {"tested_on": "KDM1A", "experiment": "Ex vivo KDM1A target engagement in rat brain and PBMCs", "set-up": "species or system Sprague-Dawley rats", "experimental": ". Native protein extracts of cells or tissues were obtained in presence of 25 nM OG-881 chemoprobe according the protocol described in Mascaró et al..\nas §1\n. […] After raw data processing (robust elimination of outliers according to Grubbs criteria and subtraction of blank signal on technical replicates), the target engagement was calculated as […]"}, "[3]": {"conditions": "Wistar rats, oral gavage 10 mg/kg"}, "[4]": {"conditions": "male, rat, plasma, po, 5.6 mg/kg/day, Wistar rats, oral drinking water 0.25mg/ml (5,6 mg/kg)"}, "[5]": {"conditions": "male, rat, plasma, po, 10 mg/kg, Wistar rats, oral drinking water, dose normalized to 10 mg/Kg"}, "[6]": {"conditions": "male, rat, plasma, po, 10 mg/kg, Wistar rats, oral gavage 10 mg/kg"}, "[7]": {"conditions": "male, rat, plasma, po, 10 mg/kg, Wistar rats, oral gavage 10 mg/kg (second gavage column)"}, "[8]": {"conditions": "male, rat, plasma, po, 10 mg/kg, Wistar rats, oral gavage 10 mg/kg (second gavage column, gavage vs drinking water study)"}, "[9]": {"conditions": "male, rat, plasma, Wistar rats, intravenous 2 mg/kg"}}, "note": "Where two headings read alike, the source gives them in different places.", "data": [{"smiles": "Nc1nnc(CN[C@@H]2C[C@H]2c2ccc(OCc3ccccc3)cc2)o1", "note": "[ORY-2001, vafidemstat]", "values": [{"measurement": "inhibition at 10 µM", "setting": "Mouse recombinant KDM1B", "value": 7, "unit": "%"}, {"measurement": "KDM1A target engagement in cortex", "setting": "KDM1A [1]", "value": "correlated with the observed functional effects on memory"}, {"measurement": "Brain Cmax", "setting": "Rat pharmacokinetics; [3]", "value": 4957, "unit": "ng/g"}, {"measurement": "Fpo", "setting": "Rat pharmacokinetics; [3]", "value": 95, "unit": "%"}, {"measurement": "time for brain compound levels to return to baseline", "setting": "Rat pharmacokinetics; brain pharmacokinetics (S2A Table)", "value": "less than 1 days"}, {"measurement": "AUC(0-inf)", "setting": "Rat pharmacokinetics; male, rat, plasma, iv, 2 mg/kg, Wistar rats, intravenous 2 mg/kg", "value": 3910, "unit": "ng·h/mL"}, {"measurement": "Cmax", "setting": "Rat pharmacokinetics; [4]", "value": 945, "unit": "ng/mL"}, {"measurement": "Tmax", "setting": "Rat pharmacokinetics; [4]", "value": 8.67, "unit": "h"}, {"measurement": "AUC(0-t)", "setting": "Rat pharmacokinetics; male, rat, plasma, po, 5.6 mg/kg/day, Wistar rats, oral drinking water 0.25mg/ml (5,6 mg/kg), ad libitum 24 hr", "value": 12000, "unit": "ng·h/mL"}, {"measurement": "AUC(0-inf)", "setting": "Rat pharmacokinetics; [4]", "value": 12100, "unit": "ng·h/mL"}, {"measurement": "Cmax", "setting": "Rat pharmacokinetics; [5]", "value": 1690, "unit": "ng/mL"}, {"measurement": "Tmax", "setting": "Rat pharmacokinetics; [5]", "value": 8.67, "unit": "h"}, {"measurement": "AUC(0-t)", "setting": "Rat pharmacokinetics; male, rat, plasma, po, 10 mg/kg, Wistar rats, oral drinking water, dose normalized to 10 mg/Kg considering a linear behavior", "value": 21500, "unit": "ng·h/mL"}, {"measurement": "AUC(0-inf)", "setting": "Rat pharmacokinetics; [5]", "value": 21700, "unit": "ng·h/mL"}, {"measurement": "Cmax", "setting": "Rat pharmacokinetics; [6]", "value": 3400, "unit": "ng/mL"}, {"measurement": "Tmax", "setting": "Rat pharmacokinetics; [6]", "value": 0.833, "unit": "h"}, {"measurement": "Cmax", "setting": "Rat pharmacokinetics; [7]", "value": 5970, "unit": "ng/mL"}, {"measurement": "Tmax", "setting": "Rat pharmacokinetics; [7]", "value": 2, "unit": "h"}, {"measurement": "AUC(0-inf)", "setting": "Rat pharmacokinetics; [8]", "value": 35600, "unit": "ng·h/mL"}, {"measurement": "AUC(0-t)", "setting": "Rat pharmacokinetics; [8]", "value": 32900, "unit": "ng·h/mL"}, {"measurement": "AUC(0-inf)", "setting": "Rat pharmacokinetics; [6]", "value": 21000, "unit": "ng·h/mL"}, {"measurement": "AUC", "setting": "Rat pharmacokinetics; male, rat, plasma, po, Wistar rats, p.o. 10 mg/kg, read-out: area-under-the-curve (AUC) (converted)", "value": 21000, "unit": "ng·h/mL"}, {"measurement": "clearance", "setting": "Rat pharmacokinetics; [9]", "value": 8.5, "unit": "mL/min/kg"}, {"measurement": "half-life", "setting": "Rat pharmacokinetics; [9]", "value": 1.87, "unit": "h"}, {"measurement": "Vd", "setting": "Rat pharmacokinetics; male, rat, plasma, Wistar rats, intravenous 2 mg/kg, read-out: Vss", "value": 1.2, "unit": "L/kg"}, {"measurement": "half-life", "setting": "Rat pharmacokinetics; male, rat, plasma, Wistar rats, oral gavage 10 mg/kg", "value": 3.28, "unit": "h"}, {"measurement": "time for brain target engagement levels to return to baseline", "setting": "KDM1A [2]; S2B Fig", "value": "~ 3 days"}, {"measurement": "time to maximum target engagement", "setting": "KDM1A [2]; rat PBMCs and brain, days of administration", "value": 5, "unit": "days"}]}]}
